The source of these data is PMC7505981, “Preparation of a whole cell catalyst overexpressing acetohydroxyacid synthase of Thermotoga maritima and its application in the syntheses of α-hydroxyketones” (Scientific Reports, 2020).

This experiment concerns the target T1, TmcAHAS (large catalytic subunit of acetohydroxyacid synthase of Thermotoga maritima) (Thermotoga maritima, UniProt Q9WZ18).
T1 construct: gene TM_0548; catalytic subunit alone, without regulatory subunit; gene from genomic DNA in pET28a (NdeI/BamHI), N-terminal His6 tag, E. coli Rosetta(DE3), Ni-NTA purified, about 68 kDa on SDS-PAGE; forward primer after NdeI site encodes MLLDEI
Nature of the experiment: photometric creatine/alpha-naphthol assay of acetoin at […] nm, Michaelis-Menten fit. The class given is biochemical. Particulars: 50 mM phosphate pH 8.0, 80 °C, 10 min, 10 μM FAD, 1 mM ThDP, 10 mM Mg2+; catalytic subunit alone; read-out: Km for pyruvate.

T1 sequence (Q9WZ18 entry or part of it): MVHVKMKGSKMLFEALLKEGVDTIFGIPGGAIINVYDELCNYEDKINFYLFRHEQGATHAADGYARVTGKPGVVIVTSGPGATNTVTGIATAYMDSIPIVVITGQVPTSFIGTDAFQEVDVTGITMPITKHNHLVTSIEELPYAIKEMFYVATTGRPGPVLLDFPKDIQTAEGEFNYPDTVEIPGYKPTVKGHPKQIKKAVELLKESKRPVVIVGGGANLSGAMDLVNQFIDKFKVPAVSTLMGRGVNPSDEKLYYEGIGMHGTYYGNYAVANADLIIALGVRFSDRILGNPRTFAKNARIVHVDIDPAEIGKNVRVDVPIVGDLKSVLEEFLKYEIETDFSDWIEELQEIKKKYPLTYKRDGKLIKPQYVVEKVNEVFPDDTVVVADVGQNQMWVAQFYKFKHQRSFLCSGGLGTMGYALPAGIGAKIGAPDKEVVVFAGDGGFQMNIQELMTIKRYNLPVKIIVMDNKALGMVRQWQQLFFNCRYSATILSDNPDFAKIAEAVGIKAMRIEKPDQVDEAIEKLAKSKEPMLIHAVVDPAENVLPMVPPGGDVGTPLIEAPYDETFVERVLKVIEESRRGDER

For `CC(=O)C(=O)O` [pyruvate], the Km came to 19.1 ± 1.6 mM.

As a reminder, the Km is the substrate concentration at which the rate is half of its maximum.
